System: any cardiac event, including ischemic stroke, or death
Assay: Bayesian hierarchical (Cox proportional hazards, Models 1 and 2) analysis of five secondary prevention studies (CARE, LIPID, PLAC I, PLAC II, REGRESS) for synergy between pravastatin and aspirin
Format: in vivo, human
Conditions: for posterior mean of the coefficient γT: Model 1, logarithmic scale, relative to placebo (γplacebo=0)
Procedure: In this study 40 mg pravastatin and 81 mg aspirin and higher were employed.
The primary endpoint was (i) any cardiac event, including ischemic stroke, or death. Secondary endpoints were individual components of the primary endpoint: (ii) any cardiac event, excluding stroke, (iii) any myocardial infarction, (iv) ischemic stroke, and (v) death. Analyses of these secondary endpoints as opposed to the primary endpoint are subject to greater uncertainty because the numbers of events are smaller. Therefore, conclusions for the secondary endpoints are likely to be less compelling.
The five studies available for addressing the synergy between pravastatin and aspirin for secondary prevention are listed and described in Table 1. Patients in all five studies were randomized to pravastatin vs placebo. All patients in all five studies are included in the primary analysis.
These may be due to random variability or to differences in patient populations. To take these differences into account, the role of patient characteristics was modeled, namely, the following covariates were considered: age, gender, smoking status, existence of coronary artery disease, and baseline values of LDL and HDL cholesterols, triglycerides, and diastolic and systolic blood pressures. In addition, the studies were conducted under different circumstances and by different investigators and even in different countries. Therefore, there may be additional study-specific differences that cannot be explained by differences in measured patient covariates. To allow for the possibility that treatment effects depend on study even after accounting for patient characteristics, Bayesian hierarchical modeling was used in which the study is one level of experimental unit and patient-within-study is a second level.
A brief introduction to Bayesian hierarchical modeling and a description of standard Bayesian hierarchical Cox proportional hazards model (Model 1) are set out below. An extension of the standard model that allows for treatment-specific time-varying hazards (Model 2) is also described. In addition, the sensitivity of the conclusions to the prior distribution of the parameter that regulates the extent of pooling of the various studies is addressed.
Model 1: Bayesian Hierarchical Analysis Using Cox Proportional Hazards Model
The Cox proportional hazards model takes hazard H to be of the form
where Z is the set of patient-specific covariates (listed above), β is the vector of regression coefficients and λ0(t) is the baseline hazard function. Treatment and study are considered separately from covariates Z, as follows: […]
Assessing the probability of synergy is straightforward in Model 1 when using Markov chain Monte Carlo (MCMC) methods. […] During each iteration of MCMC, this synergy condition is assessed. […]

Structure (SMILES)	posterior mean of the coefficient γT (primary endpoint (All events))	performance in comparison with placebo alone (primary endpoint (All events), Models 1 and 2)	estimated event rate (hazard) compared among treatment arms (stroke, Model 2, year 1)
CC(=O)Oc1ccccc1C(=O)O [aspirin, acetylsalicylic acid]	−0.0022	essentially the same	lowest estimated event rate
CC[C@H](C)C(=O)O[C@H]1C[C@H](O)C=C2C=C[C@H](C)[C@H](CC[C@@H](O)C[C@@H](O)CC(=O)O)[C@H]21 [pravastatin]	−0.0985	–	–
